Experiment [1] deals with NCI-H292 lung cancer cells. As to the kind of experiment: FDA drug screening, complete media vs cholesterol-free media with simvastatin (TABLE 2). The class given is cell-based, human.
Experiment [2] relates to NCI-H292 lung cancer cells. As to the kind of experiment: FDA drug screening, complete media vs cholesterol-free media without statin (TABLE 1). The class given is cell-based, human.
Setting [3] is: NCI-H292 cells, FDA drug library screen, cholesterol-free media with simvastatin 0.04 μM.
Setting [4] is: NCI-H292 cells, FDA drug library screen, complete media.
[5] abbreviates: complete media vs cholesterol-free media + simvastatin (0.04 μM), >0 enhanced anti-cancer activity, about 0 neutral, <0 antagonist.
Setting [6] is: Complete minus Cholesterol-free, greater than 0 enhanced anti-cancer activity, about 0 neutral, below 0 antagonist.
[7] abbreviates: NCI-H292 cells, FDA drug library screen, cholesterol-free media without statin.
Where [8] appears, read: NCI-H292 cells, FDA library drug in complete media.
[9] abbreviates: Complete minus Cholesterol-free, >0 enhanced anti-cancer activity, about 0 neutral, <0 antagonist.
Where [10] appears, read: NCI-H292 cells, cholesterol-free media without statin, FDA drug library screen.
[11] abbreviates: NCI-H292 cells, complete media, FDA drug library screen.
Setting [12] is: NCI-H292 cells, cholesterol-free media without statin.
The mark [13] stands for this setting: NCI-H292 cells, cholesterol-free media with simvastatin 0.04 μM, cell growth value in FDA drug screen.
Where [14] appears, read: NCI-H292 cells, complete media, cell growth value in FDA drug screen.
Setting [15] is: complete media minus cholesterol-free media + simvastatin, >0 enhanced anti-cancer activity, about 0 neutral, <0 antagonist.
[16] abbreviates: complete vs cholesterol-free media, >0 enhanced anti-cancer activity, about 0 neutral, <0 antagonist.
Setting [17] is: complete vs cholesterol-free media, greater than 0 enhanced anti-cancer activity, about 0 neutral, below 0 antagonists.
[18] abbreviates: NCI-H292 cells, drug in cholesterol-free media with simvastatin 0.04 μM.
[19] abbreviates: NCI-H292 cells, drug in complete media.
The mark [20] stands for this setting: Complete minus Cholesterol-free, greater than 0 enhanced anti-cancer activity, about 0 neutral, below 0 antagonists.
Setting [21] is: NCI-H292 cells in cholesterol-free media without statin.
Where [22] appears, read: NCI-H292 cells in complete media.

Counter-ions that a name gives are not always drawn. Like-named read-outs stand apart in the source and are kept apart here. Peptide text beside a SMILES is read from it.

Take `CN(C)CC/C=C1/c2ccccc2COc2ccc(CC(=O)O)cc21` [Olopatadine (hydrochloride)]: the “Cholesterol-free media + simvastatin (0.04 μM)” value in experiment [1] (setting [3]) is 0.9644. Further, the “Complete Media” value in experiment [1] (setting [4]) is given as 0.8474. The figures for the Difference in experiment [1] (setting [5]) and in experiment [2] (setting [6]) were −0.12 and −0.13, respectively. This compound also came in with a Cholesterol-free in experiment [2] (setting [7]) of 1.018. The compound further came in with a Complete in experiment [2] (setting [4]) of 0.8917.
Regarding `C#C[C@]1(O)CC[C@H]2[C@@H]3CCC4=CCCC[C@@H]4[C@H]3C(=C)C[C@@]21CC` [Desogestrel], in experiment [1] (setting [8]), the “Complete Media” value was determined as 1.022. Besides, the Difference in experiment [1] (setting [5]) was −0.60; in experiment [2] (setting [9]), 0.06. In experiment [2] (setting [10]), this compound displayed a Cholesterol-free of 0.9017. This compound had a Complete in experiment [2] (setting [11]) of 0.9645.
For `CC[C@H](C)[C@H](N)C1=N[C@H](C(=O)N[C@@H](CC(C)C)C(=O)N[C@H](CCC(=O)O)C(=O)N[C@H](C(=O)N[C@H]2CCCCNC(=O)[C@H](CC(N)=O)NC(=O)[C@@H](CC(=O)O)NC(=O)[C@H](Cc3cnc[nH]3)NC(=O)[C@@H](Cc3ccccc3)NC(=O)[C@H]([C@@H](C)CC)NC(=O)[C@@H](CCCN)NC2=O)[C@@H](C)CC)CS1` [Bacitracin] (HELM PEPTIDE1{[CC[C@H](C)[C@H](N)C1=N[C@H](C(=O)[*:2])CS1].L.[dE].I.K.[NCCC[C@@H](N[*:1])C(=O)[*:2]].I.[dF].H.[dD].N}$PEPTIDE1,PEPTIDE1,5:R3-11:R2$$$V2.0), the “Cholesterol-free media + simvastatin (0.04 μM)” value in experiment [1] (setting [3]) was determined as 0.9407. For the same compound, the “Complete Media” value in experiment [1] (setting [4]) is recorded as 1.203. The Difference was 0.26 in experiment [1] (complete media minus cholesterol-free media + simvastatin, […]) and −0.33 in experiment [2] (complete vs cholesterol-free media, […]). The compound also had a Cholesterol-free in experiment [2] (setting [12]) of 1.42. The same compound came in with a Complete in experiment [2] (NCI-H292 cells, complete media) of 1.094.
As for `CCN(C(=O)c1c(O)c2c(Cl)cccc2n(C)c1=O)c1ccccc1` [Laquinimod], in experiment [1] (NCI-H292 cells, cholesterol-free media with simvastatin 0.04 μM, FDA drug library screen (TABLE 2)), the “Cholesterol-free media + simvastatin (0.04 μM)” value is 1.3. Besides, the “Complete Media” value in experiment [1] (NCI-H292 cells, complete media, FDA drug library screen (TABLE 2)) is listed as 1.306. Further, the Difference in experiment [1] (complete media minus cholesterol-free media + simvastatin (0.04 μM), >0 enhanced anti-cancer activity, about 0 neutral, <0 antagonist) is 0.01; in experiment [2] (setting [6]), −0.15. This compound returned a Cholesterol-free in experiment [2] (setting [7]) of 1.127. Moreover, the Complete in experiment [2] (setting [4]) is reported as 0.9797.
As for `CCC(=O)O[C@]1(C(C)=O)CC[C@H]2[C@@H]3CCC4=CC(=O)C=C[C@]4(C)[C@H]3[C@@H](O)C[C@@]21C` [Deprodone propionate], the “Cholesterol-free media + simvastatin (0.04 μM)” value in experiment [1] (setting [13]) stood at 0.6417. Further, the “Complete Media” value in experiment [1] (setting [14]) turned out to be 0.6907. The Difference in experiment [1] (setting [15]) was determined as 0.05; in experiment [2] (setting [16]), 0.09. Further, the Cholesterol-free in experiment [2] (setting [10]) is 0.6965. Also, the Complete in experiment [2] (setting [11]) turned out to be 0.786.
Consider `COc1cc2c(c(OC)c1OC)-c1ccc(OC)c(=O)cc1[C@@H](NC(C)=O)CC2` [Colchicine], for which, in experiment [1], the “Cholesterol-free media + simvastatin (0.04 μM)” value amounted to 0.1971, the “Complete Media” value was 0.2205 and the Difference came out at 0.02. In experiment [2], this compound displayed a Cholesterol-free of 0.1135, a Complete of 0.07073 and a Difference of −0.04.
For the compound `CC(C)[N+](C)(CCC(C(N)=O)(c1ccccc1)c1ccccc1)C(C)C.[I-]` [Isopropamide (iodide)], the “Cholesterol-free media + simvastatin (0.04 μM)” value in experiment [1] (setting [13]) is listed as 0.9908. In addition, the “Complete Media” value in experiment [1] (setting [14]) is 1.047. Further, the results for the Difference in experiment [1] (setting [15]) and in experiment [2] (setting [17]) were 0.06 and −0.40, respectively. In addition, the Cholesterol-free in experiment [2] (setting [12]) amounted to 1.319. The compound further displayed a Complete in experiment [2] (NCI-H292 cells, complete media) of 0.9185.
Consider `O=[N+]([O-])c1cncn1CCN1CCOCC1` [Nimorazole], for which the “Cholesterol-free media + simvastatin (0.04 μM)” value in experiment [1] (setting [18]) turned out to be 1.022. Moreover, in experiment [1] (setting [19]), the “Complete Media” value was 0.8004. For the same compound, the Difference was −0.22 in experiment [1] (setting [5]) and 0.41 in experiment [2] (setting [16]). Also, the Cholesterol-free in experiment [2] (setting [10]) is on record as 0.576. This compound displayed a Complete in experiment [2] (setting [11]) of 0.9886.
Consider `NC(=O)CN1CCCC1=O` [Piracetam], for which, in experiment [1] (setting [3]), the “Cholesterol-free media + simvastatin (0.04 μM)” value is given as 1.178. Besides, the “Complete Media” value in experiment [1] (setting [4]) is on record as 1.066. In addition, the results for the Difference in experiment [1] (setting [5]) and in experiment [2] (setting [20]) were −0.11 and −0.50, respectively. In experiment [2] (setting [21]), this compound returned a Cholesterol-free of 1.403. The Complete in experiment [2] (setting [22]) was determined as 0.9062.
As for `O=C(O)CCCc1ccccc1` [4-Phenylbutyric acid], the “Cholesterol-free media + simvastatin (0.04 μM)” value in experiment [1] (setting [18]) came out at 1.251. For the same compound, the “Complete Media” value in experiment [1] (setting [19]) turned out to be 1.056. In addition, the Difference in experiment [1] (setting [5]) is given as −0.19; in experiment [2] (setting [6]) it was −0.13. In experiment [2] (setting [7]), this compound displayed a Cholesterol-free of 1.208. Besides, in experiment [2] (setting [4]), the Complete was determined as 1.079.
With `Cc1cccc(C)c1N(CC(=O)Nc1ccc(-c2ncon2)cc1)C(=O)C1CCS(=O)(=O)CC1` [Amenamevir], the “Cholesterol-free media + simvastatin (0.04 μM)” value in experiment [1] (setting [3]) was found to be 0.9047. For the same compound, the “Complete Media” value in experiment [1] (setting [4]) worked out at 1.06. Besides, the Difference is reported as 0.16 in experiment [1] (setting [15]) and −0.08 in experiment [2] (setting [6]). In experiment [2] (setting [7]), this compound registered a Cholesterol-free of 0.9508. Moreover, the Complete in experiment [2] (setting [4]) worked out at 0.8718.
Consider `CC(C)(C(=O)c1cccnc1)c1cccnc1` [Metyrapone], for which the “Cholesterol-free media + simvastatin (0.04 μM)” value in experiment [1] (setting [13]) is listed as 0.9563. In addition, the “Complete Media” value in experiment [1] (setting [14]) stood at 1.066. Further, the Difference in experiment [1] (setting [15]) is reported as 0.11; in experiment [2] (setting [17]) it was −0.36. Moreover, the Cholesterol-free in experiment [2] (setting [12]) came out at 1.096. In experiment [2] (NCI-H292 cells, complete media), this compound came in with a Complete of 0.7386.
Consider `CC(CCc1ccccc1)NC(C)C(O)c1ccc(O)cc1` (centres unmarked) [Nylidrin (hydrochloride)], for which the “Cholesterol-free media + simvastatin (0.04 μM)” value in experiment [1] (setting [3]) came to 0.6926. Moreover, the “Complete Media” value in experiment [1] (setting [4]) is listed as 0.8576. Further, the Difference in experiment [1] (setting [15]) is on record as 0.17; in experiment [2] (setting [20]) it was −0.53. In experiment [2] (setting [21]), this compound yielded a Cholesterol-free of 1.455. In experiment [2] (setting [22]), this compound returned a Complete of 0.9273.
Regarding `C[C@H](CCC(=O)O)[C@H]1CC[C@H]2[C@@H]3C[C@H](O)[C@@H]4C[C@H](O)CC[C@]4(C)[C@H]3CC[C@]12C` [Hyodeoxycholic acid], in experiment [1] (setting [3]), the “Cholesterol-free media + simvastatin (0.04 μM)” value was 0.7549. The “Complete Media” value in experiment [1] (setting [4]) worked out at 0.9966. The Difference in experiment [1] (setting [15]) is on record as 0.24; in experiment [2] (setting [17]), −0.45. Also, the Cholesterol-free in experiment [2] (setting [12]) is reported as 1.462. This compound returned a Complete in experiment [2] (NCI-H292 cells, complete media) of 1.016.
Turning to `CCN(CC)CCOC(=O)c1ccc(N)cc1Cl` [Chloroprocaine (hydrochloride)], the “Cholesterol-free media + simvastatin (0.04 μM)” value in experiment [1] (NCI-H292 cells, FDA library drug in cholesterol-free media with simvastatin 0.04 μM) is given as 1.184. Also, in experiment [1] (setting [8]), the “Complete Media” value stood at 0.9029. In addition, the Difference in experiment [1] (setting [5]) and in experiment [2] (setting [9]) was −0.28 each time. For the same compound, the Cholesterol-free in experiment [2] (setting [12]) is 1.161. In addition, in experiment [2] (NCI-H292 cells, complete media), the Complete is given as 0.8831.
Regarding `C[C@@H](OC[C@@]1(c2ccccc2)CC[C@]2(CCC(=O)N2)CN1)c1cc(C(F)(F)F)cc(C(F)(F)F)c1` [Rolapitant], the “Cholesterol-free media + simvastatin (0.04 μM)” value in experiment [1] (setting [3]) amounted to 1.001. For the same compound, the “Complete Media” value in experiment [1] (setting [4]) is recorded as 0.9304. Besides, the Difference is −0.07 in experiment [1] (setting [5]) and −0.04 in experiment [2] (setting [9]). Moreover, in experiment [2] (setting [10]), the Cholesterol-free was determined as 0.9892. For the same compound, in experiment [2] (setting [11]), the Complete is recorded as 0.9523.
Consider `CC(C)OC(=O)[C@H](C)N[P@](=O)(CO[C@H](C)Cn1cnc2c(N)ncnc21)Oc1ccccc1` [Tenofovir alafenamide fumarate], for which, in experiment [1], the “Cholesterol-free media + simvastatin (0.04 μM)” value was 0.9223, the “Complete Media” value turned out to be 0.8712 and the Difference is given as −0.05. In experiment [2], this compound showed a Cholesterol-free of 0.8261, a Complete of 0.7078 and a Difference of −0.12.

These data come from US20250144067A1, “PERSONALIZED STARVATION THERAPY FOR CANCER” (Faeth Therapeutics, Inc., priority 2021, published 2025).
